Measured values: US20260015339A1, “CALIX[4]ARENES WITH HIGH ANTICANCER ACTIVITY” (UNIVERSITE GRENOBLE ALPES, priority 2023, published 2026)

Assays:
[1] = system: MKN-1; assay: PROLiFiler-Cell Panel Screening (CellTiterGlo); assay type: cell-based; conditions: Homo sapiens; Stomach, MKN-1, 72 hours
Procedure: (§1) For the assays, cells were seeded in white cell culture-treated flat and clear bottom 384-well multiwall plates and incubated at 37° C. overnight before the calix[4]arene of the formula (2) or the reference compound were added. After incubation for 72 hours at 37° C. at 5% or 10% CO2 depending on the medium, cell plates were equilibrated to room temperature (i.e. 20° C.) for one hour, CellTiterGlo® reagent from the firm Promega was added and luminescence was measured approximately an hour later using a luminometer.
(§2) Raw data were converted into percent cell viability relative to the high and low control, which were set to 100% and 0%, respectively.

[2] = system: A549; assay: PROLiFiler-Cell Panel Screening (CellTiterGlo); assay type: cell-based; conditions: Homo sapiens; Lung, A549, 72 hours
Procedure: as §1, §2

[3] = system: K562; assay: PROLiFiler-Cell Panel Screening (CellTiterGlo); assay type: cell-based; conditions: Homo sapiens; Blood, K562, 72 hours
Procedure: as §1, §2

[4] = system: Hep3B2.1-7; assay: PROLiFiler-Cell Panel Screening (CellTiterGlo); assay type: cell-based; conditions: Liver, Hep3B2.1-7, 72 hours
Procedure: as §1, §2

[5] = system: Caki-1; assay: PROLiFiler-Cell Panel Screening (CellTiterGlo); assay type: cell-based; conditions: Homo sapiens; Kidney, Caki-1, 72 hours
Procedure: as §1, §2

[6] = system: MDA-MB-468; assay: PROLiFiler-Cell Panel Screening (CellTiterGlo); assay type: cell-based; conditions: Homo sapiens; Breast, MDA-MB-468, 72 hours
Procedure: as §1, §2

[7] = system: COV434; assay: PROLiFiler-Cell Panel Screening (CellTiterGlo); assay type: cell-based; conditions: Ovary, COV434, 72 hours
Procedure: as §1, §2

[8] = system: EFM-192A; assay: PROLiFiler-Cell Panel Screening (CellTiterGlo); assay type: cell-based; conditions: Breast, 72 hours
Procedure: as §1, §2

[9] = system: Colo 205; assay: PROLiFiler-Cell Panel Screening (CellTiterGlo); assay type: cell-based; conditions: Homo sapiens; Colon, Colo 205, 72 hours
Procedure: as §1, §2

[10] = system: HCC827; assay: PROLiFiler-Cell Panel Screening (CellTiterGlo); assay type: cell-based; conditions: Homo sapiens; Lung, HCC827, 72 hours
Procedure: as §1, §2

[11] = system: SNU-1; assay: PROLiFiler-Cell Panel Screening (CellTiterGlo); assay type: cell-based; conditions: Homo sapiens, SNU1; Stomach, SNU-1, 72 hours
Procedure: as §1, §2

[12] = system: COR-L279; assay: PROLiFiler-Cell Panel Screening (CellTiterGlo); assay type: cell-based; conditions: Homo sapiens; Lung, COR-L279, 72 hours
Procedure: as §1, §2

[13] = system: SW948; assay: PROLiFiler-Cell Panel Screening (CellTiterGlo); assay type: cell-based; conditions: Homo sapiens; Colon, SW948, 72 hours
Procedure: as §1, §2

[14] = system: H460; assay: PROLiFiler-Cell Panel Screening (CellTiterGlo); assay type: cell-based; conditions: Homo sapiens, NCI-H460; Lung, H460, 72 hours
Procedure: as §1, §2

[15] = system: EFO-27; assay: PROLiFiler-Cell Panel Screening (CellTiterGlo); assay type: cell-based; conditions: Homo sapiens; Ovary, EFO-27, 72 hours
Procedure: as §1, §2

[16] = system: NCI-H1838; assay: PROLiFiler-Cell Panel Screening (CellTiterGlo); assay type: cell-based; conditions: Homo sapiens; Lung, NCI-H1838, 72 hours
Procedure: as §1, §2

[17] = system: MOLM-13; assay: PROLiFiler-Cell Panel Screening (CellTiterGlo); assay type: cell-based; conditions: Homo sapiens; Blood, MOLM-13, 72 hours
Procedure: as §1, §2

[18] = system: H1299; assay: PROLiFiler-Cell Panel Screening (CellTiterGlo); assay type: cell-based; conditions: Homo sapiens, NCI-H1299; Lung, H1299, 72 hours
Procedure: as §1, §2

[19] = system: EPLC-272H; assay: PROLiFiler-Cell Panel Screening (CellTiterGlo); assay type: cell-based; conditions: Homo sapiens, Lung, 72 hours
Procedure: as §1, §2

[20] = system: BT-20; assay: PROLiFiler-Cell Panel Screening (CellTiterGlo); assay type: cell-based; conditions: Homo sapiens; Breast, BT-20, 72 hours
Procedure: as §1, §2

[21] = system: JIMT-1; assay: PROLiFiler-Cell Panel Screening (CellTiterGlo); assay type: cell-based; conditions: Homo sapiens; Breast, JIMT-1, 72 hours
Procedure: as §1, §2

[22] = system: T98G; assay: PROLiFiler-Cell Panel Screening (CellTiterGlo); assay type: cell-based; conditions: Homo sapiens, Brain, 72 hours
Procedure: as §1, §2

[23] = system: HL-60; assay: PROLiFiler-Cell Panel Screening (CellTiterGlo); assay type: cell-based; conditions: Homo sapiens; Blood, HL-60, 72 hours
Procedure: as §1, §2

[24] = Ag^+ transport into liposomes with encapsulated BCS; conditions: after 100 s, silver gradient of 50 μM, 1:1000 transporter to lipid ratio, added from DMSO
Procedure: Liposomes with BCS encapsulated were prepared as described above in the part entitled “II—C—1—Determination of the transport of Cu^+by the examples of calix[4]arenes” and measurements were performed as described in this part.
A Ag^+ solution was prepared by dissolving AgNO3 in a phosphate buffer at 3.05 mM concentration. After the first 30 seconds of the experiment, 50 μL of the Ag^+ solution was added to 3 mL of liposomes, resulting in a silver gradient of 50 μM. The fluorescence level was monitored for 600 seconds after the addition of the copper solution.
When a solution of DMSO with the calix[4]arene of the formula (2) was added to the liposomes (5 μL, to obtain a 1:1000 transport to lipid ratio) the decrease in fluorescence intensity of BCS was much faster (F/F0=0.55 after 100 s) compared to when DMSO without calix[4]arene of the formula (2) (5 μL) was added (F/F0=0.85 after 100 s).

[25] = system: H322 lung carcinoma cells; assay: MTS cytotoxicity assay on H322; assay type: cell-based; conditions: NCI-H322; H322, 72 hours of treatment
Procedure: H322 lung carcinoma cells were seeded in 96-well plates together with the calix[4]arene of the formula (2). Cells were grown in RPMI-1640 supplemented with GlutaMAX™ (Gibco™) and fetal calf serum (FCS, 10%) and treated with a broad range of concentrations of the calix[4]arene of the formula (2). After 72 hours of treatment, the cytotoxicity was measured by means of the IC50 value, using the kit “CellTiter 96R AQuous One Solution Cell Proliferation Assay (MTS)” from Promega™. Following 30 minutes of incubation with the MTS reagent, the endpoint measurements were done in triplicate at 485 nm, using a fluorescence plate reader.
H322 lung carcinoma cells were seeded in 96-well plates together with the compound of the 2nd comparative example of the formula (XI). Cells were grown in RPMI-1640 supplemented with GlutaMAX™ (Gibco™) and fetal calf serum (FCS, 10%) and treated with a broad range of concentrations of the 2nd comparative example of the formula (XI). After 72 hours of treatment, the cytotoxicity was measured by means of the IC50 value, using the kit “CellTiter 96R AQuous One Solution Cell Proliferation Assay (MTS)” from Promega™. Following 30 minutes of incubation with the MTS reagent, the endpoint measurements were done in triplicate at 485 nm, using a fluorescence plate reader.
H322 lung carcinoma cells were seeded in 96-well plates together with the 1st comparative example of the formula (X). Cells were grown in RPMI-1640 supplemented with GlutaMAX™ (Gibco™) and fetal calf serum (FCS, 10%) and treated with a broad range of concentrations of the compound of the formula (X). After 72 hours of treatment, the cytotoxicity was measured by means of the IC50 value, using the kit “CellTiter 96R AQuous One Solution Cell Proliferation Assay (MTS)” from Promega™. Following 30 minutes of incubation with the MTS reagent, the endpoint measurements were done in triplicate at 485 nm, using a fluorescence plate reader.
H322 lung carcinoma cells were seeded in 96-well plates together with the tested calix[4]arenes. Cells were grown in RPMI-1640 supplemented with GlutaMAX™ (Gibco™) and fetal calf serum (FCS, 10%) and treated with a broad range of concentrations of the tested calix[4]arenes. After 72 hours of treatment, the cytotoxicity was measured by means of the IC50 value, using the kit “CellTiter 96R AQuous One Solution Cell Proliferation Assay (MTS)” from Promega™. Following 30 minutes of incubation with the MTS reagent, the endpoint measurements were done in triplicate at 485 nm, using a fluorescence plate reader.

[26] = system: H322 lung carcinoma cell line; assay: Inhibition of H322 cell proliferation (cell count); assay type: cell-based; conditions: 3 μM, until 72 hours
Procedure: The inhibition of a H322 lung carcinoma cell line proliferation by the calix[4]arene of the formula (2) was determined by exposure of said H322 lung carcinoma cell line to a concentration of 3 μM of the calix[4]arene of the formula (2) until 72 hours. The absolute number of cells were counted in the treated and untreated conditions before treatment (N0) and after 72 hours (Nt).
The FIG. 3 is a graph showing: • the profile of the proliferation index Nt/N0 of the H322 cells after exposure with the calix[4]arene of the formula (2) with respect to the time (i.e. the curve entitled “calix[4]arene (2)”), • the profile of the proliferation index Nt/N0 of the H322 cells without any exposure with the calix[4]arene of the formula (2) with respect to the time (i.e. the curve entitled “untreated”).

[27] = system: A549 human lung cancer cells; assay: MTS cytotoxicity assay, combination with CuCl2, A549; conditions: Homo sapiens, A549, 72 h, read-out: percentage of cell viability
Procedure: A549 human lung cancer cells were seeded in 96-well plates together with the calix[4]arene of the formula (2) and CuCl2. Cells were grown in RPMI-1640 supplemented with GlutaMAX™ (Gibco™) and fetal calf serum (FCS, 10%) treated with a broad range of concentrations of the calix[4]arene of the formula (2) or/and CuCl2 from Merck. After 72 hours of treatment, the cytotoxicity was measured by means of the IC50 value, using the kit “CellTiter 96R AQuous One Solution Cell Proliferation Assay (MTS)” from Promega™. Following 30 minutes of incubation with the MTS reagent, the endpoint measurements were done in triplicate at 485 nm, using a fluorescence plate reader.

SMILES | IC50 [1] | IC50 [2] | IC50 [3] | IC50 [4] | IC50 [5] | IC50 [6] | IC50 [7] | IC50 [8] | IC50 [9] | IC50 [10] | IC50 [11] | IC50 [12] | IC50 [13] | IC50 [14] | IC50 [15] | IC50 [16] | IC50 [17] | IC50 [18] | IC50 [19] | IC50 [20] | also measured
CCCOc1c2cccc1Cc1cccc(c1OCc1nccn1C)Cc1cccc(c1OCCC)Cc1cccc(c1OCc1nccn1C)C2 [(2)] | 2160 nM | 1040 nM | 1890 nM | 781 nM | 3240 nM | 741 nM | 732 nM | 5450 nM | 1810 nM | 1720 nM | 2550 nM | 1510 nM | 2150 nM | 727 nM | 1520 nM | 3480 nM | 1710 nM | 1300 nM | 1470 nM | 1270 nM | IC50 [21]: 2700 nM; IC50 [22]: 3110 nM; IC50 [23]: 1450 nM; F/F0 (fluorescence intensity of BCS) [24]: 0.55; IC50 [25]: 1840 nM; proliferation index Nt/N0 (FIG. 3) [26]: clearly inhibits the proliferation; viability at 0.1 µM [27]: 102%; viability at 0.5 µM [27]: 96.4%; viability at 1 µM [27]: 79.9%; viability at 1.5 µM [27]: 52.2%
CC(C)C[C@H](NC(=O)[C@H](Cc1ccccc1)NC(=O)c1cnccn1)B(O)O [bortezomib, reference compound] | 4.32 nM | 13.7 nM | 14.6 nM | 7.98 nM | 5.37 nM | 4.2 nM | 9.24 nM | 4.75 nM | 6.79 nM | 8.4 nM | 28.8 nM | 4.94 nM | 8.88 nM | 28.8 nM | 13.2 nM | 34.1 nM | 3.91 nM | 8.42 nM | 7.17 nM | 29.5 nM | IC50 [21]: 8.57 nM; IC50 [22]: 11.4 nM; IC50 [23]: 3.73 nM
